The values below come from patent US12370143B2, “Compound or salt thereof and lipid particles” (FUJIFILM Corporation, priority 2018, dated 2025).

The term IC50 denotes the point on the concentration scale where inhibition reaches its midpoint.

SMILES strings stand for the structures.

Data set [1] can be described thus: Encapsulation rate of siRNA in nucleic acid lipid particles (Luc2-siRNA). To be noted: compound/DSPC/cholesterol/DMG-PEG2000 50/10/38.5/1.5. The class given is physicochemical. The method, boiled down:
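Encapsulation rate was calculated as (total − outer-phase siRNA)/total ×100. Total siRNA was quantified spectrophotometrically after lipid-dissolving ethanol precipitation, and unencapsulated siRNA by RiboGreen in TE (ex 485/em 535 nm). The particles were test lipid/DSPC/cholesterol/DMG-PEG2000 at 50/10/38.5/1.5, formed by microfluidic mixing with Luc2-siRNA at pH 4 and dialyzed against PBS.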

Data set [2] can be described thus: Particle size of nucleic acid lipid particles (FVII-siRNA). It is filed as physicochemical. The procedure:
The compounds described in Table 2, L-α-distearoylphosphatidylcholine (trade name: COATSOME® MC-8080; NOF corporation), cholesterol (trade name: Choesterol HP; NIPPON FINE CHEMICAL CO., LTD.), and 1,2-dimyristoyl-rac-glycero-3-(methylpolyoxyethylene 2000) (hereinafter, called DMG-PEG2000) (trade name: SUNBRIGHT® GM-020; NOF corporation) were dissolved in ethanol at a molar ratio of 50/10/38.5/1.5 such that the total lipid concentration became 20 mmol/L, thereby obtaining an oil phase.
An aqueous nucleic acid solution obtained by dissolving 5 mg of Luc2-siRNA having the sequence described in Biomacromolecules (2013) 14, p. 3905 in 1 mL of sterile water was diluted with 10 mmol/L acetate buffer having a pH 4 such that the nucleic acid concentration became 19.7 μmol/L, thereby obtaining a water phase. Then, the water phase and the oil phase were mixed together by a micromixer (see JP5288254B) using a syringe pump such that the volume ratio of water phase:oil phase became 3:1 (final ratio of siRNA/lipid=339 (mol/mol)), and the mixed solution was diluted 2× with PBS, thereby obtaining a dispersion liquid of nucleic acid lipid particles. The dispersion liquid was dialyzed (Slide-A-Lyzer G2, MWCO: 10 kD, Thermo Fisher Scientific) using a phosphate buffered saline such that ethanol was removed, thereby obtaining nucleic acid lipid particles.
The particle size of the nucleic acid lipid particles was measured by the same method as that in <Preparation of lipid particles>.
(§1) The Factor VII (FVII) protein was measured according to the method described in Nature Biotechnology (2010) 28, 172-176. C57BL6/J mice were randomly grouped (n=3). A dispersion liquid of nucleic acid lipid particles was prepared by the same method as that in <Preparation of nucleic acid lipid particles>, except that FVII-siRNA having the sequence described in Molecular Therapy (2009) 17, p. 878 was used instead of Luc-siRNA. The dispersion liquid was administered to the caudal vein of the mice at a dosage of 0.1 mg/kg. For comparison, PBS at the same volume was administered to the caudal vein of the mice. Twenty four hours after the administration, blood was collected from the caudal vena cava, thereby obtaining plasma. The amount of FVII protein was quantified using the obtained plasma and a Biophen FVII assay kit (Aniara).

Data set [3] concerns Factor VII (FVII) protein. Put plainly: Measurement of Factor VII (FVII) protein in mouse plasma after FVII-siRNA lipid particles. The class given is in vivo, C57BL6/J mice. Particulars: 0.1 mg/kg caudal vein, plasma 24 hours after administration, PBS group = 100%. The method, boiled down:
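C57BL6/J mice (n=3) received FVII-siRNA nucleic acid lipid particles at 0.1 mg/kg into the tail vein; controls got PBS. Each value is the percentage of the PBS-group FVII level.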

Data set [4] deals with DMS273 cells constantly expressing Luc. Put plainly: Target reporter protein (Luc) knockdown in cell, reporter protein assay. It is filed as cell-based. To be noted: Homo sapiens, DMS-273; Luc2-siRNA lipid particles using the compound; siRNA 0.1 to 100 nmol/L; concentration at which Luc expression is knocked down to 50%; read-out: IC50. The method, boiled down: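 Nucleic acid lipid particles added at final 0.1 to 100 nmol/L to DMS273 human SCLC cells stably expressing Luc2, 24 hr exposure then 24 hr further culture after medium change. Luc quantified by Steady Glo luminescence after viable cell count; knockdown efficiency calculated and IC50 taken as concentration giving 50% Luc reduction.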

Data set [5] is described as follows: Nucleic acid encapsulation rate of nucleic acid lipid particles (FVII-siRNA). The class given is physicochemical. The procedure: A 3 mol/L aqueous sodium acetate solution (30 μL) and 9 μL of glycogen were added to 60 μL of the lipid particles retaining nucleic acids, and then 1.5 mL of ethanol was added thereto such that only the nucleic acids were precipitated while the lipid was dissolved. Then, the supernatant was removed by centrifugation. After the precipitates were air-dried for 15 minutes or longer, water was added thereto such that the precipitates were redissolved, and the concentration thereof was measured using Nanodrop NF1000 (Thermo Fisher Scientific), thereby quantifying the total nucleic acid concentration.
The nucleic acid concentration was quantified using a Quant-iT RiboGreen RNA Assay Kit (Thermo Fisher Scientific) according to the protocol. First, a 20×TE buffer included in the above kit was diluted with water, thereby obtaining a 1×TE buffer. TE represents Tris/EDTA (ethylenediaminetetraacetic acid). In order to quantify only the nucleic acid in the outer water phase, the dispersion liquid of lipid particles retaining nucleic acids was diluted 10,000× with the 1×TE buffer.
The 10,000× diluted dispersion liquid of lipid particles (100 μL) was put in a 96-well plate, then 100 μL of a RiboGreen reagent (reagent included in the Quanti-iT Ribogreen RNA Assay Kit described above) diluted 2000× with the 1×TE buffer was added to a sample, and fluorescence (excitation wavelength: 485 nm, fluorescence wavelength: 535 nm) was measured using a plate reader Infinit EF200 (TECAN), thereby quantifying the nucleic acid concentration in the outer water phase.
By using the total nucleic acid concentration obtained through the above steps and the quantified nucleic acid concentration in the outer water phase, the nucleic acid encapsulation rate of the nucleic acid lipid particles was calculated according to the following Equation. Nucleic acid encapsulation rate (%)=(total nucleic acid concentration−nucleic acid concentration in outer water phase)/total nucleic acid concentration×100 The results are shown in Table 2.
as §1

Data set [6] is described as follows: Particle size of nucleic acid lipid particles (Luc2-siRNA). It is filed as physicochemical. Particulars: compound/DSPC/cholesterol/DMG-PEG2000 50/10/38.5/1.5. The method, boiled down: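 Particle size was read by ELS-Z2 light scattering on nucleic acid lipid particles after dialysis against PBS. These were made by micromixing Luc2-siRNA (19.7 μmol/L, pH 4 acetate) with ethanolic lipids (test lipid/DSPC/cholesterol/DMG-PEG2000 50/10/38.5/1.5, 20 mmol/L) at 3:1 water:oil, siRNA/lipid 339 mol/mol.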

As for `CCCCC/C=C\C/C=C\CCCCCCCCC(CCCCCCCC/C=C\C/C=C\CCCCC)OC(=O)OCCN(CCCCC)CCN(C)C` [Example 40, 2-((2-(Dimethylamino)ethyl)(pentyl)amino)ethyl((6Z,9Z,28Z,31Z)-heptatriaconta-6,9,28,31-tetraen-19-yl)carbonate], the “Nucleic acid encapsulation rate” value in data set [1] and in data set [5] was 75% in each case. In addition, the “Particle size (nm)” value came to 66.6 nm in data set [2] and 73.7 nm in data set [6]. Besides, the “Relative amount of FVII protein (%)” value in data set [3] is on record as 3%. Besides, the IC50 in data set [4] amounted to 15 nM.
Turning to `CCCCCCCC/C=C\CCCCCCCC(=O)OCCCCCCC(CCCCCCOC(=O)CCCCCCC/C=C\CCCCCCCC)OC(=O)OCCN(CCCCCC)CCN(C)C` [Example 43], the “Nucleic acid encapsulation rate” value in data set [1] is on record as 78%; in data set [5], 87%. Besides, the “Particle size (nm)” value in data set [2] is 75.3 nm; in data set [6], 74.5 nm. Further, the “Relative amount of FVII protein (%)” value in data set [3] was found to be 11%. Also, the IC50 in data set [4] was 19 nM.
`CCCCC/C=C\C/C=C\CCCCCCCC(=O)OCCCCCCC(CCCCCCOC(=O)CCCCCCC/C=C\C/C=C\CCCCC)OC(=O)OCCN(CC)CCN(CC)CC` [Example 45, 7-(((2-((2-(Diethylamino)ethyl)(ethyl)amino)ethoxy)carbonyl)oxy)tridecane-1,13-diyl(9Z,9′Z,12Z,12′Z)-bis(octadeca-9,12-dienoate)]: the “Nucleic acid encapsulation rate” value was determined as 76% in data set [1] and 79% in data set [5]. For the same compound, the “Particle size (nm)” value in data set [2] amounted to 71.5 nm; in data set [6] it was 71.7 nm. Moreover, in data set [3], the “Relative amount of FVII protein (%)” value came to 16%. In data set [4], the IC50 came out at 22 nM.
Consider `CCCCCC/C=C\CCCCCCCC(=O)OCCCCCCC(CCCCCCOC(=O)CCCCCCC/C=C\CCCCCC)OC(=O)OCCN(CC)CCN(CC)CC` [Example 46, 7-(((2-((2-(Diethylamino)ethyl)(ethyl)amino)ethoxy)carbonyl)oxy)tridecane-1,13-diyl(9Z,9′Z)-bis(hexadec-9-enoate)], for which the “Nucleic acid encapsulation rate” value in data set [1] is 80%; in data set [5], 84%. The entries for the “Particle size (nm)” value in data set [2] and in data set [6] were 68.4 nm and 71 nm, respectively. Moreover, the “Relative amount of FVII protein (%)” value in data set [3] is on record as 18%. The IC50 in data set [4] was determined as 17 nM.
As for `CCCC/C=C\CCCCCCCC(=O)OCCCCCCC(CCCCCCOC(=O)CCCCCCC/C=C\CCCC)OC(=O)OCCN(CC)CCN(CC)CC` [Example 47, 7-(((2-((2-(Diethylamino)ethyl)(ethyl)amino)ethoxy)carbonyl)oxy)tridecane-1,13-diyl(9Z,9′Z)-bis(tetradec-9-enoate)], the entries for the “Nucleic acid encapsulation rate” value in data set [1] and in data set [5] were 74% and 82%, respectively. Moreover, the “Particle size (nm)” value in data set [2] worked out at 79.4 nm; in data set [6], 72.3 nm. The “Relative amount of FVII protein (%)” value in data set [3] is recorded as 11%. Also, in data set [4], the concentration for half-maximal inhibition (IC50) was 19 nM.
As to `CCCCCCCCCCCCC(CCCCCCCCC(=O)OCC(CCCC)CCCCCC)OC(=O)OCCN(CC)CCN(CC)CC` (stereo not drawn) [Example 50, 2-Butyloctyl 12-dodecyl-3,6-diethyl-10-oxo-9,11-dioxa-3,6-diazahenicosan-21-oate], the “Nucleic acid encapsulation rate” value in data set [1] is on record as 79%; in data set [5], 84%. The “Particle size (nm)” value in data set [2] was found to be 65.4 nm; in data set [6] it was 65.6 nm. The “Relative amount of FVII protein (%)” value in data set [3] is on record as 11%. Further, the 50% inhibitory concentration (IC50) in data set [4] amounted to 13 nM.
`CCCCC/C=C\C/C=C\CCCCCCCCC(CCCCCCCC/C=C\C/C=C\CCCCC)OC(=O)OCCN(CCN(CC)CC)Cc1ccccc1` [Example 51, 2-(Benzyl(2-(diethylamino)ethyl)amino)ethyl((6Z,9Z,28Z,31Z)-heptatriaconta-6,9,28,31-tetraen-19-yl)carbonate]: the “Nucleic acid encapsulation rate” value came to 76% in data set [1] and 84% in data set [5]. For the same compound, the “Particle size (nm)” value in data set [2] was 71 nm; in data set [6] it was 69 nm. The “Relative amount of FVII protein (%)” value in data set [3] worked out at 19%. In addition, the concentration for half-maximal inhibition (IC50) in data set [4] is 37 nM.
With `CCCCC/C=C\C/C=C\CCCCCCCCC(CCCCCCCC/C=C\C/C=C\CCCCC)OC(=O)OCCN(CCCCCCCC)CCN(C)C` [Example 52, 2-((2-(Dimethylamino)ethyl)(octyl)amino)ethyl((6Z,9Z,28Z,31Z)-heptatriaconta-6,9,28,31-tetraen-19-yl)carbonate], the “Nucleic acid encapsulation rate” value in data set [1] is 80%; in data set [5], 83%. In addition, the figures for the “Particle size (nm)” value in data set [2] and in data set [6] were 73.1 nm and 79.9 nm, respectively. The “Relative amount of FVII protein (%)” value in data set [3] was 19%. The IC50 in data set [4] was 27 nM.
Regarding `CCCCCCCCCCCCC(CCCCCCCCC(=O)OCC(CCCC)CCCCCC)OC(=O)OCCN(CCN(CC)CC)C(C)C` (stereo not drawn) [Example 61, 2-Butyloctyl 12-dodecyl-3-ethyl-6-isopropyl-10-oxo-9,11-dioxa-3,6-diazahenicosan-21-oate], the “Nucleic acid encapsulation rate” value is recorded as 75% in data set [1] and 78% in data set [5]. The figures for the “Particle size (nm)” value in data set [2] and in data set [6] were 67.7 nm and 60.9 nm, respectively. Besides, in data set [3], the “Relative amount of FVII protein (%)” value is 8%. In data set [4], the IC50 is 7 nM.
On to `CCCCC/C=C\C/C=C\CCCCCCCCC(CCCCCCCC/C=C\C/C=C\CCCCC)OC(=O)OCCN(CCC)CCN(C)C(C)C` [Example 64], for which the “Nucleic acid encapsulation rate” value in data set [1] is recorded as 75%; in data set [5], 86%. Further, the “Particle size (nm)” value turned out to be 65.7 nm in data set [2] and 61.5 nm in data set [6]. Also, in data set [3], the “Relative amount of FVII protein (%)” value worked out at 10%. Moreover, in data set [4], the IC50 came out at 5 nM.
Regarding `CCCCCCCCCCC(CCCCCCCCCCC(=O)OCC(CCCC)CCCCCC)OC(=O)OCCN(CC)CCN(CC)CC` (stereo not drawn) [Example 66, 2-Butyloctyl 12-decyl-3,6-diethyl-10-oxo-9,11-dioxa-3,6-diazatricosan-23-oate], the “Nucleic acid encapsulation rate” value in data set [1] is reported as 73%; in data set [5] it was 98%. Moreover, the “Particle size (nm)” value in data set [2] worked out at 85.4 nm; in data set [6], 69.8 nm. Also, the “Relative amount of FVII protein (%)” value in data set [3] was determined as 17%. Moreover, the IC50 in data set [4] was 28 nM.
